Results reported in PMC3445516 (PLoS ONE, 2012).

What was measured:
[1] = target: T1, recombinant GST-tagged human protein kinase D1 (PKD1) (Homo sapiens, UniProt Q15139); test: In vitro radiometric PKD1 kinase assay; type: biochemical
T1 construct: purchased Enzo Life sciences (Farmingdale, NY)
T1 sequence (Q15139 1-912): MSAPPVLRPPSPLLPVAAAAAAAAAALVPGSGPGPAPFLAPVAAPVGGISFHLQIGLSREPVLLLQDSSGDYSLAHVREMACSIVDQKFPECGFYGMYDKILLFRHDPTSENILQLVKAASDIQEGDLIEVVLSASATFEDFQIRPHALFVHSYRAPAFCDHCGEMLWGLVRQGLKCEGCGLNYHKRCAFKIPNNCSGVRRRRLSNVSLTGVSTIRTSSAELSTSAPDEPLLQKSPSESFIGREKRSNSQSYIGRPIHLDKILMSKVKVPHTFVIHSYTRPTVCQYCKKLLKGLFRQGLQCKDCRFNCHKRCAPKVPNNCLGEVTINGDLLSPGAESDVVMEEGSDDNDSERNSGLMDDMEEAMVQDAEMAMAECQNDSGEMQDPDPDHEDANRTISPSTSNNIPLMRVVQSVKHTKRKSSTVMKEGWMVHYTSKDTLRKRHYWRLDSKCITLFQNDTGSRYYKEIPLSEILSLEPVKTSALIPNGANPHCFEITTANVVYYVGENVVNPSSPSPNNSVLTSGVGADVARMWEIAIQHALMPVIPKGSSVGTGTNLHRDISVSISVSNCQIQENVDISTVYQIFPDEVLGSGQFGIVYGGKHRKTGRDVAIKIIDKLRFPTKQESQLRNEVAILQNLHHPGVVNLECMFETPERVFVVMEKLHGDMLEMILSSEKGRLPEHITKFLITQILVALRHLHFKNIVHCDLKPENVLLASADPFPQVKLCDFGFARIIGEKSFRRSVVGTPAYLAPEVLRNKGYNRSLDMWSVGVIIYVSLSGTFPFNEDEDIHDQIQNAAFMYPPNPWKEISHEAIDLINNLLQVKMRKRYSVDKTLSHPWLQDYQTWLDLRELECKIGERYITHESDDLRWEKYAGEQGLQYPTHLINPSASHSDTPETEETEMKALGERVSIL
Protocol: All compounds were given distinct UPCMLD (University of Pittsburgh Center for Chemical Methodologies and Library Development) IDs and were then assigned numerical IDs for convenient data display. Evaluation of each compound was carried out in triplicate at a single concentration (1 µM). Our previously described PKD1 inhibitor, kb-NB142-70, and DMSO (solvent alone) were used as positive and negative controls, respectively. Percent residual kinase activity was calculated based on that of the negative control (DMSO).
Kinase active recombinant GST-tagged human protein kinase D1 (PKD1) was obtained from Enzo Life sciences (Farmingdale, NY). DMSO was purchased from Sigma. Recombinant PKCα, PKCδ and CAMKIIα were obtained from SignalChem (Richmond, BC, Canada). ATP was purchased from Fisher Scientific. HDAC5 substrate peptide was synthesized by Biobasic Canada Inc. (Markham, ON). Myelin basic protein 4–14 was purchased from AnaSpec Inc. (Fremont, CA). The targeted kinase inhibitor library was obtained from Hoffmann-La Roche, Inc.
1.2 µg of HDAC-5 was used as substrate in the reaction. Phosphorylation of HDAC5 was detected in a kinase reaction having 1 µCi [γ-^32P] […] The reaction was incubated at 30° for 10 minutes and 25 µL of the reaction was spotted on Whatman P81 filter paper. The filter paper was washed 3 times in 0.5% phosphoric acid, air dried and counted using Beckman LS6500 multipurpose scintillation counter. Percent PKD1 inhibition was graphed using GraphPad Prism software 5.0.

p38α = p38α (Homo sapiens, UniProt Q16539); conditions: 10 and 100 nM
Chain of p38α (Q16539 whole entry): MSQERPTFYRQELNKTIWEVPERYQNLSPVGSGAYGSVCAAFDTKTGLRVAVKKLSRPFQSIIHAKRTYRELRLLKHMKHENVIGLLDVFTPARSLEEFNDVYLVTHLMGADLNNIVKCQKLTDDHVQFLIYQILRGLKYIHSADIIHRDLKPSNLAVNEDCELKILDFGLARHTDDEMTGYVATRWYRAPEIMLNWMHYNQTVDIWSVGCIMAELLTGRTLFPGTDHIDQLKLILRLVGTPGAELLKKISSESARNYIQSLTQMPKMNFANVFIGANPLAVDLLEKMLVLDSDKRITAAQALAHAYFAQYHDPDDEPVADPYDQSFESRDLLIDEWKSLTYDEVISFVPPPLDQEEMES
Protocol: Phosphorylation of 3.5 µg of p38 substrate was detected in a reaction having 1 µCi [γ-^32P] ATP (Perkin Elmer Life Sciences), 50 µM ATP, 50 ng active recombinant p38 in 50 µL kinase buffer containing 25 mM Tris-HCl, pH 7.5, 10 mM MgCl2, 5 mM β-glycerophosphate, 0.1 mM Na3VO4 and 2 mM DTT. The reaction was incubated at 30°C for 10 minutes and 25 µL of the reaction was spotted on Whatman P81 filter paper. The filter paper was washed 3 times in 0.5% phosphoric acid, air dried and counted using Beckman LS6500 multipurpose scintillation counter. Percent p38 inhibition was graphed using GraphPad Prism software 5.0.

[2] = target: T2, endogenous PKD1 in LNCaP prostate cancer cells (Homo sapiens, UniProt Q15139); test: PMA-induced activation of PKD1 in LNCaP cells (immunoblot pS916 / pS744/748); type: cell-based; conditions: PMA 10 nM
T2 construct: endogenous in cells; host or cells: LNCaP prostate cancer cells
T2 sequence (Q15139 1-912): T1 sequence (Q15139 1-912)
Protocol: (§1) PMA induces PKC-dependent phosphorylation of Ser744/748 (S^744/748) in the activation loop followed by autophosphorylation of PKD1 on Ser916 (S^916) in the C-terminus, [31]. The catalytic activity of PKD1 correlates well with the level of phosphorylation at S^916 [31].
(§2) Figure 5 In vitro IC50, cellular activity, and mode of action of representative compounds. […] IC50 values were calculated based on the dose-response curve. Data are represented as mean ± SEM of 3 independent experiments. […] Cell lysates were subjected to immunoblotting for pS^916-PKD1 and pS^744/748-PKD1. Tubulin was blotted as loading control. The experiments were repeated three times and representative blots are shown. C.

PKD1 = target: T3, PKD1 (Homo sapiens, UniProt Q15139); test: Kinetic analysis, Lineweaver-Burk plots (ATP competition); type: biochemical
T3 construct: purchased Enzo Life sciences (Farmingdale, NY)
Protocol: as §1, §2

[3] = tested on: LPS-stimulated TNFα synthesis; set-up: method as in PMID 14561090; conditions: acute rat model of LPS-stimulated TNFα synthesis; cited from earlier work
PKCα = target: T4, PKCα (Homo sapiens, UniProt P17252); test: In vitro radiometric PKC kinase assay; type: biochemical; conditions: 0.1, 1 and 10 µM; positive control
T4 construct: purchased SignalChem (Richmond, BC, Canada)
Protocol: (§3) In this study, we counter-screened the twenty-eight PKD1 inhibitory agents for inhibition of PKCα, PKCδ and CAMKIIα in order to get an initial profile for the potential PKD selectivity, since these are the functionally most closely related kinases. The compounds were examined at 0.1, 1 and 10 µM concentration. […] Next, the inhibitory activity for CAMKIIα was examined.
(§4) The PKC kinase assay was carried out by co-incubating 1 µCi [γ-^32P]ATP, 20 µM ATP, 50 ng of purified PKCα or PKCδ and 5 µg of myelin basic protein 4–14, 0.25 mg/mL bovine serum albumin, 0.1 mg/mL phosphatidylcholine/phosphatidylserine (80/20%) (1 µM), 1 µM phorbol dibutyrate in 50 µL of kinase buffer containing 50 mM Tris-HCl, pH 7.5, 4 mM MgCl2 and 10 mM β-mercaptoethanol. For the CAMK assay, 50 ng of CAMK and 2 µg Syntide-2 substrate in 50 µL kinase buffer were incubated with 0.1 mM MgCl2, 1 µCi of [γ-^32P] ATP, 70 µM ATP. 0.5 mM CaCl2 and 30 ng/µL calmodulin were preincubated for 15 min on ice and then added in the kinase reaction. The reactions were incubated at 30°C for 10 minutes and 25 µL of the reaction was spotted on Whatman P81 filter paper. The filter paper was washed 3 times in 0.5% phosphoric acid, air dried and counted using Beckman LS6500 multipurpose scintillation counter.

PKCδ = PKCδ (Homo sapiens, UniProt Q05655); test: In vitro radiometric PKC kinase assay; type: biochemical; set-up: purchased SignalChem (Richmond, BC, Canada); conditions: 0.1, 1 and 10 µM; positive control
Chain of PKCδ (Q05655 whole entry): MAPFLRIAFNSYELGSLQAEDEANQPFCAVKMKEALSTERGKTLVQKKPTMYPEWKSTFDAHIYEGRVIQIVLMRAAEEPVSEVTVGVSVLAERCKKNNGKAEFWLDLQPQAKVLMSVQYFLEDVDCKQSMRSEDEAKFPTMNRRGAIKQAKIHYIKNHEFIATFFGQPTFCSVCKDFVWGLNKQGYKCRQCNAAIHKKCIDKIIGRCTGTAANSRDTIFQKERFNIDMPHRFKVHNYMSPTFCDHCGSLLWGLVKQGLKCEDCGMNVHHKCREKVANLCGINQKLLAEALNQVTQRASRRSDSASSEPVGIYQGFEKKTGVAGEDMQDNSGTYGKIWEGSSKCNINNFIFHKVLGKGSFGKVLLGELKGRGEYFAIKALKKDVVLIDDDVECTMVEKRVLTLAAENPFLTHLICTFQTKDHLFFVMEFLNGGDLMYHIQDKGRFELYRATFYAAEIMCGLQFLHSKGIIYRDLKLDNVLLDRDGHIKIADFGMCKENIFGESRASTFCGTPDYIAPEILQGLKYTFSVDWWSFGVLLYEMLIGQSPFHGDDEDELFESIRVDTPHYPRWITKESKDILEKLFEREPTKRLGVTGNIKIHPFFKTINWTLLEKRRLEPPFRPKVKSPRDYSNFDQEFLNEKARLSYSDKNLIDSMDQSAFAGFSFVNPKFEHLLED
Protocol: as §3, §4

| Compound | IC50 ([1]; dose-response, mean ± SEM of 3 independent experiments) [µM] | inhibition at 1 µM ([1]; read-out: Inhibition of PKD1) [%] | inhibition of p38α (p38α) | effect on PKC-induced transphosphorylation at S744/748 [2] | IC50 ([2]; densitometry of pS916-PKD1 levels, read-out: cellular IC50 for inhibition of PKD1) [µM] | mode of inhibition with respect to ATP (PKD1) | in vivo efficacy [3] | inhibition of PKCα (PKCα) | inhibition of PKCδ (PKCδ) |
| --- | --- | --- | --- | --- | --- | --- | --- | --- | --- |
| CC(CO)Nc1cc(-c2[nH]c3cccnc3c2-c2ccc(F)cc2)ccn1 (stereo not drawn) [Compound 139] | 0.0168 | 94 | most potent | did not affect | 1.5 | competitive with respect to ATP | in vivo efficacy has been demonstrated | – | – |
| CN(C)CCCn1cc(C2=C(c3c[nH]c4ccccc34)C(=O)NC2=O)c2ccccc21 [GF109203X, reference compound] | – | – | – | – | – | – | – | strongly inhibited | strongly inhibited |
